Laboratory results reported in BigSolDB 2.1.

Structure (SMILES): Cc1ccc2cc(C)ccc2c1
- solubility (mole fraction) (in cyclohexane, 293.18 K): 0.03
- solubility (mole fraction) (in cyclohexane, 298.86 K): 0.0398
- solubility (mole fraction) (in cyclohexane, 305.57 K): 0.0513
- solubility (mole fraction) (in cyclohexane, 312.3 K): 0.0714
- solubility (mole fraction) (in cyclohexane, 318.76 K): 0.096
- solubility (mole fraction) (in cyclohexane, 323.07 K): 0.115
- solubility (mole fraction) (in cyclohexane, 325.79 K): 0.134
- solubility (mole fraction) (in cyclohexane, 333.08 K): 0.187
- solubility (mole fraction) (in cyclohexane, 339.97 K): 0.253
- solubility (mole fraction) (in ethyl acetate, 287.56 K): 0.0424
- solubility (mole fraction) (in ethyl acetate, 292.27 K): 0.0494
- solubility (mole fraction) (in ethyl acetate, 298.27 K): 0.0585
- solubility (mole fraction) (in ethyl acetate, 305.69 K): 0.0775
- solubility (mole fraction) (in ethyl acetate, 311.52 K): 0.0957
- solubility (mole fraction) (in ethyl acetate, 318.89 K): 0.123
- solubility (mole fraction) (in ethyl acetate, 325.2 K): 0.158
- solubility (mole fraction) (in ethyl acetate, 332.01 K): 0.2
- solubility (mole fraction) (in ethyl acetate, 338.58 K): 0.256
- solubility (mole fraction) (in isooctane, 288.36 K): 0.0234
- solubility (mole fraction) (in isooctane, 293.19 K): 0.0294
- solubility (mole fraction) (in isooctane, 298.62 K): 0.0344
- solubility (mole fraction) (in isooctane, 306.77 K): 0.0487
- solubility (mole fraction) (in isooctane, 315.41 K): 0.0725
- solubility (mole fraction) (in isooctane, 322.03 K): 0.0905
- solubility (mole fraction) (in isooctane, 327.1 K): 0.113
- solubility (mole fraction) (in isooctane, 334.57 K): 0.149
- solubility (mole fraction) (in isooctane, 341.2 K): 0.197
- solubility (mole fraction) (in isopropanol, 286.65 K): 0.0054
- solubility (mole fraction) (in isopropanol, 294.55 K): 0.0072
- solubility (mole fraction) (in isopropanol, 301.45 K): 0.0098
- solubility (mole fraction) (in isopropanol, 309.65 K): 0.0136
- solubility (mole fraction) (in isopropanol, 315.75 K): 0.0174
- solubility (mole fraction) (in isopropanol, 323.22 K): 0.023
- solubility (mole fraction) (in isopropanol, 330.55 K): 0.0297
- solubility (mole fraction) (in isopropanol, 335.95 K): 0.0371
- solubility (mole fraction) (in isopropanol, 341.65 K): 0.0517
- solubility (mole fraction) (in n-heptane, 288.85 K): 0.0289
- solubility (mole fraction) (in n-heptane, 293.58 K): 0.0359
- solubility (mole fraction) (in n-heptane, 298.72 K): 0.0433
- solubility (mole fraction) (in n-heptane, 304.56 K): 0.0529
- solubility (mole fraction) (in n-heptane, 311.77 K): 0.0632
- solubility (mole fraction) (in n-heptane, 317.8 K): 0.0775
- solubility (mole fraction) (in n-heptane, 324.79 K): 0.0979
- solubility (mole fraction) (in n-heptane, 332.39 K): 0.132
- solubility (mole fraction) (in n-heptane, 339.42 K): 0.17
- solubility (mole fraction) (in n-propyl acetate, 286.65 K): 0.0485
- solubility (mole fraction) (in n-propyl acetate, 293.5 K): 0.0638
- solubility (mole fraction) (in n-propyl acetate, 300.85 K): 0.0815
- solubility (mole fraction) (in n-propyl acetate, 307.41 K): 0.103
- solubility (mole fraction) (in n-propyl acetate, 313.85 K): 0.127
- solubility (mole fraction) (in n-propyl acetate, 320.65 K): 0.159
- solubility (mole fraction) (in n-propyl acetate, 328.22 K): 0.206
- solubility (mole fraction) (in n-propyl acetate, 333.46 K): 0.245
- solubility (mole fraction) (in n-propyl acetate, 338.17 K): 0.289
